Each block holds one compound with its values, some of them ahead of it.
Assays:
Experiment in all cases: KINOMEscan competition binding
Conditions in all cases: compound 10.0 µM
MAP4K4 (human) = MAP4K4 (human) (UniProt O95819)
CDK7 (human) = CDK7 (human) (UniProt P50613)
[1] = tested on: PIK3CA (human), P42336 [E545K]
CaMK1 (human) = CaMK1 (human) (UniProt Q14012)
MAP3K6 (human) = MAP3K6 (human) (UniProt O95382)
CSK (human) = CSK (human) (UniProt P41240)
EPHA1 (human) = EPHA1 (human) (UniProt P21709)
EPHA1 (human), sequence (P21709 whole entry, looked up): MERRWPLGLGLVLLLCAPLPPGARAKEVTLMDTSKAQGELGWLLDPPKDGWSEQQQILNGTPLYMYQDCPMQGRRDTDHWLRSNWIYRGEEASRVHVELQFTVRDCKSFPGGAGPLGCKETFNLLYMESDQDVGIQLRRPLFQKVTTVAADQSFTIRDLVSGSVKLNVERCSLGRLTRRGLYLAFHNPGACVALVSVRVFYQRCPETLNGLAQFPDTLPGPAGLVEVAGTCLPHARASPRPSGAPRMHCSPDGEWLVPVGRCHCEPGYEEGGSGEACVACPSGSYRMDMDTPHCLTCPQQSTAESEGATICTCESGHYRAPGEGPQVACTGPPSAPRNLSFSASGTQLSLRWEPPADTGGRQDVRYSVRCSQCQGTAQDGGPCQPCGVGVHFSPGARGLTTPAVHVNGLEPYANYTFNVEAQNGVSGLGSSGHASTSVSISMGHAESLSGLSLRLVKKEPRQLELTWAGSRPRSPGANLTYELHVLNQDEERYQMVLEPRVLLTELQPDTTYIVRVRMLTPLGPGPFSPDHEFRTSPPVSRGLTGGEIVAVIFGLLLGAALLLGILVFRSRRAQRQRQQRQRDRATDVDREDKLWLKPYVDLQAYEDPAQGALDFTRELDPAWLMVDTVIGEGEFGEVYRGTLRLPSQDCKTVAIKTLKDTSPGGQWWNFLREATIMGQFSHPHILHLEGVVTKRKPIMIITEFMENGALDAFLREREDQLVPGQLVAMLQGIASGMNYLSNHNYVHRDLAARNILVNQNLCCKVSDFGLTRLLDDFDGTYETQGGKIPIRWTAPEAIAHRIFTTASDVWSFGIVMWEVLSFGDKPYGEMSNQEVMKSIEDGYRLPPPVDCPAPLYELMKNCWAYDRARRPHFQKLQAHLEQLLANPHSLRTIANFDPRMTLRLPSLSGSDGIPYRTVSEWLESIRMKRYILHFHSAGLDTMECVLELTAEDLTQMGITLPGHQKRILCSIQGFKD

EPHB6 (human) = EPHB6 (human) (UniProt O15197)
[2] = tested on: KIT (human), P10721 [D816V]
EPHA8 (human) = EPHA8 (human) (UniProt P29322)
EPHA8 (human), sequence (P29322 whole entry, looked up): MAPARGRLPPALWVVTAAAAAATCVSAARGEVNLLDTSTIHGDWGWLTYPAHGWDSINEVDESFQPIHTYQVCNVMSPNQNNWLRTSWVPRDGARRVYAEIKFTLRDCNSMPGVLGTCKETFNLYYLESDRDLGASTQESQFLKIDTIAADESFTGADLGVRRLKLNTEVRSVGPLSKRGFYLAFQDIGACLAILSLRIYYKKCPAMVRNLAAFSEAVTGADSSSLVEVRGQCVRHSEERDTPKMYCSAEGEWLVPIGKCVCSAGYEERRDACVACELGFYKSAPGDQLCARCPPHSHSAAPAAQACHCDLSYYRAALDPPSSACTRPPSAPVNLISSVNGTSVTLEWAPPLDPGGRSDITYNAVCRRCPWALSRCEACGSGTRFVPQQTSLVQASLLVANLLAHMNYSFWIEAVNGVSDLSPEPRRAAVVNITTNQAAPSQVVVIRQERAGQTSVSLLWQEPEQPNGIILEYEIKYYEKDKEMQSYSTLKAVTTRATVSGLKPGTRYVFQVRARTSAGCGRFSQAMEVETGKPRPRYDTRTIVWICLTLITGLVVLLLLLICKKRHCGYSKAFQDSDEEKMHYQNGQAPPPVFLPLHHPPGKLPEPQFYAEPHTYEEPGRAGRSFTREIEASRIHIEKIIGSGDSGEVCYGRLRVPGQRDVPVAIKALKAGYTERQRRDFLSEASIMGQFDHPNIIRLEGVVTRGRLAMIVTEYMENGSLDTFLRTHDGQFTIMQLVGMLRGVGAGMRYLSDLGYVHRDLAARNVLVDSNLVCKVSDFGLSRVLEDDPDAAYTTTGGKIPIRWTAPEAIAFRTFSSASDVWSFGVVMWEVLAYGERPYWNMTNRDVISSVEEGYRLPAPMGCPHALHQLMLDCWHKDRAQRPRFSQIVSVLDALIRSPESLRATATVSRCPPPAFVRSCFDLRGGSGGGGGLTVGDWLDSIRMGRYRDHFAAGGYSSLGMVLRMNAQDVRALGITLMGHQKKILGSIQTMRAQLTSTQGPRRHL

PDGFRB (human) = PDGFRB (human) (UniProt P09619)
CDK2 (human) = CDK2 (human) (UniProt P24941)
MAP3K1 (human) = MAP3K1 (human) (UniProt Q13233)
TEC (human) = TEC (human) (UniProt P42680)
SRMS (human) = SRMS (human) (UniProt Q9H3Y6)
EPHB4 (human) = EPHB4 (human) (UniProt P54760)
MYLK4 (human) = MYLK4 (human) (UniProt Q86YV6)
FER (human) = FER (human) (UniProt P16591)
GAK (human) = GAK (human) (UniProt O14976)
MAP3K13 (human) = MAP3K13 (human) (UniProt O43283)
[3] = target: JAK1 JH1 catalytic (human) (UniProt P23458)
PIP5K1A (human) = PIP5K1A (human) (UniProt Q99755)
MKNK2 (human) = MKNK2 (human) (UniProt Q9HBH9)
CAMK2A (human) = CAMK2A (human) (UniProt Q9UQM7)
NTRK2 (human) = NTRK2 (human) (UniProt Q16620)
NTRK2 (human), sequence (Q16620 whole entry, looked up): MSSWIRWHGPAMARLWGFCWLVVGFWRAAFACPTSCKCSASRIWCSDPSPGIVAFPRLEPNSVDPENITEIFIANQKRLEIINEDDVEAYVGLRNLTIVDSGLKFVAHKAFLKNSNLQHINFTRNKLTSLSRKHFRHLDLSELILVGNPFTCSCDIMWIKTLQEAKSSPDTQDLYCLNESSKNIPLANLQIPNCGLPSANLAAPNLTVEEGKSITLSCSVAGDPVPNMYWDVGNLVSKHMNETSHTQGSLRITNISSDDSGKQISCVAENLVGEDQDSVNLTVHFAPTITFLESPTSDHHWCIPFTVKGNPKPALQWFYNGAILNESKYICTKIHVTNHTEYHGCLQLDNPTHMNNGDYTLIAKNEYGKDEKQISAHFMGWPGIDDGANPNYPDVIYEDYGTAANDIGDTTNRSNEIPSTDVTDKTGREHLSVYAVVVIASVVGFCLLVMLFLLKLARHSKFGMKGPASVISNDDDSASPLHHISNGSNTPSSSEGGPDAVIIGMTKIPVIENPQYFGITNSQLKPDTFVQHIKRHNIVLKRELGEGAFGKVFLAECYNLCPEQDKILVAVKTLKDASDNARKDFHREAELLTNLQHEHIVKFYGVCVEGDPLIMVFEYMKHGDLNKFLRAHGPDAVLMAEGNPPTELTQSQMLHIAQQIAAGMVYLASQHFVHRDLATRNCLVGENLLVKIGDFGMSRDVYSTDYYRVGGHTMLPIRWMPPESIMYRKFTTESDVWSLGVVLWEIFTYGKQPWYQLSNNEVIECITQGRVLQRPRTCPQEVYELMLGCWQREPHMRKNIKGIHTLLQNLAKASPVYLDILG

RIPK4 (human) = RIPK4 (human) (UniProt P57078)
MAPK9 (human) = MAPK9 (human) (UniProt P45984)
MAPK9 (human), sequence (P45984 whole entry, looked up): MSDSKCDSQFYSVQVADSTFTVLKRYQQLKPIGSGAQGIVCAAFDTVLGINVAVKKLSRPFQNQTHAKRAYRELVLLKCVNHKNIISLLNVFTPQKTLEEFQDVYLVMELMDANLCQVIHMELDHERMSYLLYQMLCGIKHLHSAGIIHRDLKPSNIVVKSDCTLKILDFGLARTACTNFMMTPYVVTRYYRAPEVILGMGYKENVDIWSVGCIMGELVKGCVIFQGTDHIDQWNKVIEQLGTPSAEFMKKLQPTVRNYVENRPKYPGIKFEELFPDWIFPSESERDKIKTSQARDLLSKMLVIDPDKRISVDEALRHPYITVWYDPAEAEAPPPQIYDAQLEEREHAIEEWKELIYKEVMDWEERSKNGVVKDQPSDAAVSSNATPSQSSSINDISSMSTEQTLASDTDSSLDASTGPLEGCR

PIK3CB (human) = PIK3CB (human) (UniProt P42338)
TGFBR1 (human) = TGFBR1 (human) (UniProt P36897)
[4] = tested on: ABL1 (human), P00519 [F317I]
CDK5 (human) = CDK5 (human) (UniProt Q00535)
CDK5 (human), sequence (Q00535 whole entry, looked up): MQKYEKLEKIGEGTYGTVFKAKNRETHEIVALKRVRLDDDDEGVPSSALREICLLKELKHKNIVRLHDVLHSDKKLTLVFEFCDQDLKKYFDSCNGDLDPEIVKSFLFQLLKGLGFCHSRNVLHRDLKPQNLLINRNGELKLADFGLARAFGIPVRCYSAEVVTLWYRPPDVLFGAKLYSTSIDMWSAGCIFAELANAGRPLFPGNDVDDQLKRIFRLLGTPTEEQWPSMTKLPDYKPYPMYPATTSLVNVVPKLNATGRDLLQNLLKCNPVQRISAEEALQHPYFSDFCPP

PIK3CD (human) = PIK3CD (human) (UniProt O00329)
CSNK1G1 (human) = CSNK1G1 (human) (UniProt Q9HCP0)
RPS6KA2 KD1 (human) = RPS6KA2 KD1 (human) (UniProt Q15349)
MAPK8 (human) = MAPK8 (human) (UniProt P45983)
MINK1 (human) = MINK1 (human) (UniProt Q8N4C8)
CSNK1G3 (human) = CSNK1G3 (human) (UniProt Q9Y6M4)
CSNK1G3 (human), sequence (Q9Y6M4 whole entry, looked up): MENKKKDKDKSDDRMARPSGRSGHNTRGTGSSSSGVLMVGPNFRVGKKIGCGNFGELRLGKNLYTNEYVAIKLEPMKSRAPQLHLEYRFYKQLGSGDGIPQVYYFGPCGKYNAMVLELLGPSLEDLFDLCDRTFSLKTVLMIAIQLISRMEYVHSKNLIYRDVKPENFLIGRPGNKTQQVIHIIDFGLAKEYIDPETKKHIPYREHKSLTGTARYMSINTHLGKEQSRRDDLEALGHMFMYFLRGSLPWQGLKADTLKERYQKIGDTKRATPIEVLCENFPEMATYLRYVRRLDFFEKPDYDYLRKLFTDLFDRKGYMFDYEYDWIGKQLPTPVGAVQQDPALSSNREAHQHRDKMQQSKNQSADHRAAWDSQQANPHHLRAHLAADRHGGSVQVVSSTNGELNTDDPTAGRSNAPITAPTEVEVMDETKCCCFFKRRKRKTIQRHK

MAPK14 (human) = MAPK14 (human) (UniProt Q16539)
CDC2L2 (human) = CDC2L2 (human) (UniProt Q9UQ88)
CDC42BPA (human) = CDC42BPA (human) (UniProt Q5VT25)
HCK (human) = HCK (human) (UniProt P08631)

PIK3CA (human), P42336 [E545K], sequence (P42336 whole entry E545K, looked up): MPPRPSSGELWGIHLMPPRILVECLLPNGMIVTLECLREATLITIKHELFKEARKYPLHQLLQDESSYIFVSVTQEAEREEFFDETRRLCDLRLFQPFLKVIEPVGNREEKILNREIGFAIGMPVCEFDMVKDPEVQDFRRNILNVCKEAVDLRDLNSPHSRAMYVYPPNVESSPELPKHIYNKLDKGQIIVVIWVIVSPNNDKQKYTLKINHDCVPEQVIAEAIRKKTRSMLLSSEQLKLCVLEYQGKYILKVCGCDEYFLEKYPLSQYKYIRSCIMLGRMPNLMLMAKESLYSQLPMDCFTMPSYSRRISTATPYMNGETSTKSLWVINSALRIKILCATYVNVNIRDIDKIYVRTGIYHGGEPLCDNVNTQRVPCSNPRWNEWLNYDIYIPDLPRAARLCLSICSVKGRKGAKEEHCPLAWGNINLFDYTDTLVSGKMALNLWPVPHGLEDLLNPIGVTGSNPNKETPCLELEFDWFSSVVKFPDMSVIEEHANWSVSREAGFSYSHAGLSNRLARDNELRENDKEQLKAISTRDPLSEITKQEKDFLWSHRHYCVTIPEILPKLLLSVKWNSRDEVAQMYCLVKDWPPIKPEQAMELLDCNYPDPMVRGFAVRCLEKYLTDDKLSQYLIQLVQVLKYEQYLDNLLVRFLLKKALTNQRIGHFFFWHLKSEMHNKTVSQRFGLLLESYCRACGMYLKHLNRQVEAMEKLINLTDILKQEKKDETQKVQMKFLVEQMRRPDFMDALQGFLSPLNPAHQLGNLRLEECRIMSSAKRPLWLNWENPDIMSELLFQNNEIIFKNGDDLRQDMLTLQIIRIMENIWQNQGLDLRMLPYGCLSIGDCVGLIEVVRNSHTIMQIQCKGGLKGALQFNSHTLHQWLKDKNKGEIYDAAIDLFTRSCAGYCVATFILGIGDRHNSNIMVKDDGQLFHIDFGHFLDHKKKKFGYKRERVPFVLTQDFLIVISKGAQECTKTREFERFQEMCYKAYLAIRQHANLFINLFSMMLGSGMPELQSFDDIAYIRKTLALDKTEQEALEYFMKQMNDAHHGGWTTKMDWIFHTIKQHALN

- kinase still bound, per cent of control (MAP4K4 (human)): 92%
- kinase still bound, per cent of control (CDK7 (human)): 100%
- kinase still bound, per cent of control [1]: 100%
- kinase still bound, per cent of control (CaMK1 (human)): 100%
- kinase still bound, per cent of control (MAP3K6 (human)): 85%
- kinase still bound, per cent of control (CSK (human)): 100%
- kinase still bound, per cent of control (EPHA1 (human)): 100%
- kinase still bound, per cent of control (EPHB6 (human)): 100%
- kinase still bound, per cent of control [2]: 100%
- kinase still bound, per cent of control (EPHA8 (human)): 100%
- kinase still bound, per cent of control (PDGFRB (human)): 88%
- kinase still bound, per cent of control (CDK2 (human)): 74%
- kinase still bound, per cent of control (MAP3K1 (human)): 100%
- kinase still bound, per cent of control (TEC (human)): 100%
- kinase still bound, per cent of control (SRMS (human)): 75%
- kinase still bound, per cent of control (EPHB4 (human)): 100%
- kinase still bound, per cent of control (MYLK4 (human)): 91%
- kinase still bound, per cent of control (FER (human)): 100%
- kinase still bound, per cent of control (GAK (human)): 98%
- kinase still bound, per cent of control (MAP3K13 (human)): 70%
- kinase still bound, per cent of control [3]: 76%
- kinase still bound, per cent of control (PIP5K1A (human)): 70%
- kinase still bound, per cent of control (MKNK2 (human)): 100%
- kinase still bound, per cent of control (CAMK2A (human)): 100%
- kinase still bound, per cent of control (NTRK2 (human)): 81%
- kinase still bound, per cent of control (RIPK4 (human)): 100%
- kinase still bound, per cent of control (MAPK9 (human)): 84%
- kinase still bound, per cent of control (PIK3CB (human)): 100%
- kinase still bound, per cent of control (TGFBR1 (human)): 82%
- kinase still bound, per cent of control [4]: 100%
- kinase still bound, per cent of control (CDK5 (human)): 72%
- kinase still bound, per cent of control (PIK3CD (human)): 100%
- kinase still bound, per cent of control (CSNK1G1 (human)): 66%
- kinase still bound, per cent of control (RPS6KA2 KD1 (human)): 100%
- kinase still bound, per cent of control (MAPK8 (human)): 100%
- kinase still bound, per cent of control (MINK1 (human)): 86%
- kinase still bound, per cent of control (CSNK1G3 (human)): 59%
- kinase still bound, per cent of control (MAPK14 (human)): 100%
- kinase still bound, per cent of control (CDC2L2 (human)): 100%
- kinase still bound, per cent of control (CDC42BPA (human)): 100%
- kinase still bound, per cent of control (HCK (human)): 100%
SMILES: COc1ccc(CNC(=O)Nc2ncc([N+](=O)[O-])s2)cc1

- kinase still bound, per cent of control (MAP4K4 (human)): 8%
- kinase still bound, per cent of control (CDK7 (human)): 12%
- kinase still bound, per cent of control [1]: 100%
- kinase still bound, per cent of control (CaMK1 (human)): 28%
- kinase still bound, per cent of control (MAP3K6 (human)): 41%
- kinase still bound, per cent of control (CSK (human)): 56%
- kinase still bound, per cent of control (EPHA1 (human)): 85%
- kinase still bound, per cent of control (EPHB6 (human)): 0.3%
- kinase still bound, per cent of control [2]: 2.3%
- kinase still bound, per cent of control (EPHA8 (human)): 40%
- kinase still bound, per cent of control (PDGFRB (human)): 0%
- kinase still bound, per cent of control (CDK2 (human)): 14%
- kinase still bound, per cent of control (MAP3K1 (human)): 100%
- kinase still bound, per cent of control (TEC (human)): 100%
- kinase still bound, per cent of control (SRMS (human)): 13%
- kinase still bound, per cent of control (EPHB4 (human)): 48%
- kinase still bound, per cent of control (MYLK4 (human)): 7.3%
- kinase still bound, per cent of control (FER (human)): 100%
- kinase still bound, per cent of control (GAK (human)): 2.1%
- kinase still bound, per cent of control (MAP3K13 (human)): 54%
- kinase still bound, per cent of control [3]: 42%
- kinase still bound, per cent of control (PIP5K1A (human)): 0%
- kinase still bound, per cent of control (MKNK2 (human)): 28%
- kinase still bound, per cent of control (CAMK2A (human)): 0.8%
- kinase still bound, per cent of control (NTRK2 (human)): 7.2%
- kinase still bound, per cent of control (RIPK4 (human)): 40%
- kinase still bound, per cent of control (MAPK9 (human)): 63%
- kinase still bound, per cent of control (PIK3CB (human)): 88%
- kinase still bound, per cent of control (TGFBR1 (human)): 83%
- kinase still bound, per cent of control [4]: 4.2%
- kinase still bound, per cent of control (CDK5 (human)): 9.5%
- kinase still bound, per cent of control (PIK3CD (human)): 100%
- kinase still bound, per cent of control (CSNK1G1 (human)): 39%
- kinase still bound, per cent of control (RPS6KA2 KD1 (human)): 2.2%
- kinase still bound, per cent of control (MAPK8 (human)): 23%
- kinase still bound, per cent of control (MINK1 (human)): 6.2%
- kinase still bound, per cent of control (CSNK1G3 (human)): 81%
- kinase still bound, per cent of control (MAPK14 (human)): 92%
- kinase still bound, per cent of control (CDC2L2 (human)): 100%
- kinase still bound, per cent of control (CDC42BPA (human)): 70%
- kinase still bound, per cent of control (HCK (human)): 1.2%
SMILES: O=C1Nc2cc(Br)ccc2/C1=C1/Nc2ccccc2/C1=N\O

— the kinase profiling compilation of Christmann-Franck et al. (2016)
